The values that follow come from article PMC7949145 (The Journal of Biological Chemistry, 2021).

Assay [1] concerns the target T1, Mtr LpqY (Mycolicibacterium thermoresistibile, UniProt G7CES0). The experiment in a line: Thermal shift assay (SYPRO Orange) of potential ligands. The following applies: ligand 10 mM; for ΔTm: Mtr LpqY 2.6 μM, shift relative to protein alone (Tm 66.0 °C), no unit in table, °C. It is filed as binding, Mycobacterium thermoresistible.
Assay [2] concerns the target T1, Mtr LpqY. The experiment in a line: Microscale thermophoresis (MST), wild-type protein. It is filed as binding, Mycobacterium thermoresistible. The following applies: for Kd: 21 °C, wild-type Mtr LpqY 500 nM, mean ± SEM, at least three experiments. (In general: In MST a laser heats a spot of the sample, and binding alters the fluorescence response.)
The subject of assay [3] is mycobacteria. More on the design: method as in PMID 22978752. The following applies: cited from earlier work.
For assay [4], the target named is T1, Mtr LpqY. The experiment in a line: Saturation transfer difference (STD) NMR. Type of assay: binding, Mycobacterium thermoresistible. To be noted: protein 25 μM, ligand 1 mM, PBS D2O pH 7.4, 288 K. As for the experimental part: However, despite numerous efforts, we were unable to obtain a crystal structure of Mtr LpqY in complex with 6-azido-trehalose. Therefore, to further our understanding into the mode of ligand binding, the binding epitope of 6-azido-trehalose with Mtr LpqY was determined in solution by saturation transfer difference (STD) NMR experiments, as described in the Methods section.
All the STD NMR experiments were performed in PBS D2O buffer, pH 7.4. […] STD NMR spectra were acquired on a Bruker Avance 500.13 MHz at 288 K. The on- and off-resonance spectra were acquired using a train of 50 ms Gaussian selective saturation pulses using a variable saturation time from 0.5 s to 5 s, and a relaxation delay (D1) of 4 s. The water signal was suppressed using the watergate technique ([41]), whereas the residual protein resonances were filtered using a T1ρ-filter of 40 ms. All the spectra were acquired with a spectral width of 8 kHz and 24K data points using 512 scans. The on-resonance spectra were acquired by saturating at 0.80 (aliphatic hydrogens) or 7.20 ppm (aromatic hydrogens), as average chemical shifts predicted from shiftX2 ([42]) for the aliphatic and aromatic residues present in the binding site of Mtr LpqY, whereas the off-resonance spectra were acquired by saturating at 40 ppm. […]

SMILES strings stand for the structures. Entries after “also recorded” stand apart in the source; their conditions may differ. Read-outs that look alike come from different tables or passages of the source.

T1 sequence (G7CES0 29-471): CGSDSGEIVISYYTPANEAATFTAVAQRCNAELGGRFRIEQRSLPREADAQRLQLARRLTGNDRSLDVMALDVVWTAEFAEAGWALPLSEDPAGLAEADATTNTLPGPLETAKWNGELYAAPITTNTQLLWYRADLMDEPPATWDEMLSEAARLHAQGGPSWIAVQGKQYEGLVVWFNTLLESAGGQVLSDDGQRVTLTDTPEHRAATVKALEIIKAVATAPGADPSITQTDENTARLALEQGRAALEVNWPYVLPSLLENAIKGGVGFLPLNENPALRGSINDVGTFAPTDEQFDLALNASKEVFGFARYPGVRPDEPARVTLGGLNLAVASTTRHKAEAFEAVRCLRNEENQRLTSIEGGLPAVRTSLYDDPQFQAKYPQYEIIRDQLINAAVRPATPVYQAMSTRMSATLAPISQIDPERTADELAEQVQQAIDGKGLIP

Regarding `OC[C@H]1O[C@H](O[C@H]2[C@H](O)[C@@H](O)C(O)O[C@@H]2CO)[C@H](O)[C@@H](O)[C@@H]1O` (mixture of isomers) [maltose], the “Recognition in the thermal shift screen (in words)” value in assay [1] was “reduced ΔTm shifts; also recorded: inability”.

Consider `[N-]=[N+]=N[C@H]1[C@@H](O[C@H]2O[C@H](CO)[C@@H](O)[C@H](O)[C@H]2O)O[C@H](CO)[C@@H](O)[C@@H]1O` [2-azido-2-deoxy-trehalose, 2-azido-2-deoxy-α,α′-trehalose], for which, in assay [1], the “Recognition in the thermal shift screen (in words)” value was “only a minor shift” and the ΔTm was found to be 1.7 ± 0.1. Further, the Kd in assay [2] (read-out: Kd) was 1916 ± 7.7 µM. Further, the “Import into the cytosol of mycobacteria” value in assay [3] was “imported and found in the cytosol”.

Turning to `[N-]=[N+]=N[C@@H]1[C@@H](O)[C@@H](O[C@H]2O[C@H](CO)[C@@H](O)[C@H](O)[C@H]2O)O[C@H](CO)[C@H]1O` [3-azido-3-deoxy-trehalose], the ΔTm in assay [1] is recorded as 6.7 ± 0.2. For the same molecule, the Kd in assay [2] (read-out: Kd) came out at 475 ± 17.2 µM. For the same molecule, the “Import into the cytosol of mycobacteria” value in assay [3] is listed as “is not”.

As to `[N-]=[N+]=N[C@H]1[C@H](O)[C@@H](O)[C@@H](O[C@H]2O[C@H](CO)[C@@H](O)[C@H](O)[C@H]2O)O[C@@H]1CO` [4-azido-4-deoxy-trehalose, 4-azido-4-deoxy-α,α′-trehalose], in assay [1], the “Recognition in the thermal shift screen (in words)” value is recorded as “comparable to trehalose” and the ΔTm amounted to 10.2 ± 0.1. In addition, in assay [2] (read-out: Kd), the Kd amounted to 247 ± 7.1 µM. For the same molecule, the “Import into the cytosol of mycobacteria” value in assay [3] is “imported and found in the cytosol”.

As to `NC[C@H]1O[C@H](O[C@H]2O[C@H](CO)[C@@H](O)[C@H](O)[C@H]2O)[C@H](O)[C@@H](O)[C@@H]1O` [6-amino-6-deoxy-trehalose, 6-amino-6-deoxy-α,α′-trehalose], the ΔTm in assay [1] was 7.0 ± 0.1.

With `[N-]=[N+]=NC[C@H]1O[C@H](O[C@H]2O[C@H](CO)[C@@H](O)[C@H](O)[C@H]2O)[C@H](O)[C@@H](O)[C@@H]1O` [6-azido-6-deoxy-trehalose, 6-azido-6-deoxy-α,α′-trehalose], in assay [2] (Kd), binding was characterised by a dissociation constant (Kd) of 443 ± 5.3 µM. For the same molecule, the “Binding by STD NMR” value in assay [4] is given as “Binding was confirmed”. In assay [3], the “Import into the cytosol of mycobacteria” value was “imported and found in the cytosol”.

Turning to `OCC1O[C@H](O[C@H]2OC(CO)[C@H](O)[C@H](O)C2O)C(O)[C@@H](O)[C@H]1O` (stereo partly drawn) [Galactotrehalose, α-D-galactopyranosyl-(1→1)-α-D-glucopyranoside], the ΔTm in assay [1] worked out at 6.1 ± 0.6.

Turning to `OC[C@H]1O[C@H](OC[C@H]2OC(O)[C@H](O)[C@@H](O)[C@@H]2O)[C@H](O)[C@@H](O)[C@@H]1O` (stereo partly shown) [Isomaltose], in assay [1], the “Recognition in the thermal shift screen (in words)” value was “reduced ΔTm shifts” and the ΔTm turned out to be 4.1 ± 0.2.

In the case of `OC[C@H]1O[C@H](O[C@H]2C(O)O[C@H](CO)[C@@H](O)[C@@H]2O)[C@H](O)[C@@H](O)[C@@H]1O` (stereo partly shown) [Kojibiose], in assay [1], the “Recognition in the thermal shift screen (in words)” value is “reduced ΔTm shifts” and the ΔTm came to 7.9 ± 0.2. Also, the “Fold reduction in binding affinity (increase in Kd) compared with trehalose” value in assay [2] is given as ~30 fold. Besides, in assay [2] (read-out: Kd), the Kd was 2350 ± 123 µM.

`OC[C@H]1O[C@H](O[C@H]2O[C@H](CO)[C@@H](O)[C@H](O)[C@H]2O)[C@@H](O)[C@@H](O)[C@@H]1O` [Mannotrehalose, α-D-mannopyranosyl-(1→1)-α-D-glucopyranoside]: the ΔTm in assay [1] stood at 5.9 ± 0.3.

Take `OC[C@H]1O[C@H](O[C@H]2[C@H](O)[C@@H](CO)OC(O)[C@@H]2O)[C@H](O)[C@@H](O)[C@@H]1O` (stereo partly shown) [Nigerose]: in assay [1], the “Recognition in the thermal shift screen (in words)” value is recorded as “reduced ΔTm shifts” and the ΔTm is 5.1 ± 0.1.

As to `OC[C@H]1O[C@H](O[C@H]2O[C@H](CO)[C@@H](O)[C@H](O)[C@H]2O)[C@H](O)[C@@H](O)[C@@H]1O` [Trehalose, α-D-glucopyranosyl-α-D-glucopyranoside], in assay [4], the “Binding by STD NMR” value is given as “Binding was confirmed”.

On to `O=P(O)(O)OC[C@H]1O[C@H](O[C@H]2O[C@H](CO)[C@@H](O)[C@H](O)[C@H]2O)[C@H](O)[C@@H](O)[C@@H]1O` [Trehalose-6-phosphate], for which the ΔTm in assay [1] is 3.7 ± 0.2.

As to `OC[C@H]1OC(O)[C@H](O)[C@@H](O)[C@@H]1O` (stereo partly shown) [glucose], the “Recognition in the thermal shift screen (in words)” value in assay [1] was “no influence on the ΔTm”.

`C[N+](C)(C)CCOP(=O)([O-])OC[C@H](O)CO` [glycerophosphocholine]: the “Recognition in the thermal shift screen (in words)” value in assay [1] is on record as “did not observe binding”.

As to `OC[C@H]1O[C@@H](O[C@H]2O[C@H](CO)[C@@H](O)[C@H](O)[C@H]2O)[C@H](O)[C@@H](O)[C@@H]1O` [α,β-trehalose], the ΔTm in assay [1] came out at 3.7 ± 0.1.

A word on the Kd: it is a measure of binding affinity in units of concentration.
